Results taken from patent US10799467B2, “Use of the phytocannabinoid cannabidivarin (CBDV) in the treatment of epilepsy” (GW Pharma Limited, priority 2010, dated 2020).

Columns and labels:
[1] = system: pilocarpine-induced seizures; test: CBDV with standard anti-epileptic drugs in the pilocarpine model of epilepsy; assay type: in vivo
Text: These two drugs are representative of two classes of anti-convulsants which have different mechanisms of action.

[2] = system: epileptiform burst activity in hippocampal slices (Mg2+-free model); test: Mg2+-free in vitro epileptiform model in hippocampal brain slices (multi-electrode array); assay type: cell-based, Wistar rats
Method: (§1) Use of isolated CBDV in two in vitro epileptiform models in hippocampal brain slices
(§2) Hippocampal slices were produced acutely from P>21 Wistar rats and activity recorded by multi-electrode arrays (MEA).
(§3) To induce epileptiform activity, either Mg^2+ was removed (Mg^2+-free model) or 100 μM 4-aminopyridine was added (4-AP model). 30 min after epileptiform burst activity was established, CBDV was added cumulatively (1, 10, 100 μM; 30 min each).
(§4) The effects of CBDV on epileptiform burst amplitude and duration were measured (Table 2.1).

[3] = system: epileptiform burst activity in hippocampal slices (4-AP model); test: 4-AP in vitro epileptiform model in hippocampal brain slices (multi-electrode array); assay type: cell-based, Wistar rats
Method: as §1, §2, §3, §4

[4] = system: motor function; test: Linearly accelerating rotarod test of motor function; assay type: in vivo, rats; details: for time remaining on the rotarod (latency to fall): 60 minutes after administration, vehicle 111.6 seconds
Method: Each animal received either CBDV (100 or 200 mg/kg, n=10 for each group) or vehicle (2:1:17 Cremophor:ethanol:saline [n=12] or saline [n=11]) on a given experimental day. Experimental test days were separated by a two day rest period to allow for clearance of previous compounds. The order of drug administration was randomised using a standard Latin square design.
60 minutes after CBDV or vehicle administration, animals were placed on a linearly accelerating rotarod (Panlab/Harvard Apparatus, Holliston, USA) that increased in speed from 4 to 40 rpm over a 300 second period. An accelerating protocol was employed to eliminate the need for habituation to the rotarod, minimising divergence in the results obtained for each animal owing to disproportionate improvements in performance. Each test ended when the animal fell from the rotarod, with each animal performing three accelerating rotarod runs per experimental day. Animals were allowed a 5 minute recovery between tests to prevent fatigue-induced declines in performance. Mean latency in seconds to fall from the rotarod was compared between vehicle control and CBDV groups to assess motor function.
To assess whether there were significant effects on motor function between the two different vehicle treatments, we subjected the data to Mann-Whitney U test. Lack of significance in this analysis would allow us to combine vehicle groups thereby reducing duration of testing (i.e. each rat would undertake only one vehicle treatment test day rather than two). For analysis of CBDV effects on motor function, data were subjected to a between-subjects 1-way ANOVA with drug concentration as the main factor. In all cases, P≤0.05 was considered to be significant.

[5] = system: PTZ-induced seizures; test: CBDV with standard anti-epileptic drugs in the PTZ model of generalised seizures; assay type: in vivo, Wistar rats
Method: As described in Example 2 above. Varying doses of the SAED's ethosuximide and valproate were tested in combination to isolated CBDV at a dose of 200 mg/kg.

[6] = CBDV 200 mg/kg with valproate at various doses
[7] = valproate (varying doses) co-administered with CBDV 200 mg/kg

SMILES: C=C(C)[C@@H]1CCC(C)=C[C@H]1c1c(O)cc(CCC)cc1O [CBDV, Cannabidivarin]
- seizure severity ([1]; CBDV 200 mg/kg with phenobarbital at various doses): significantly decreases
- mortality (independent effect) [1, 6]: significant decrease
- seizure severity (independent effect) [1, 6]: independent and positive effects
- bilateral seizure incidence ([1]; CBDV 200 mg/kg, particularly with high dose Valproate (250 mg/kg)): significantly decreased
- CBDV interaction (alone) with clonic tonic seizure ([1]; CBDV 200 mg/kg, valproate study): statistically significant
- Burst amplitude (% of control) CA1 ([2]; CBDV 1 μM): 82.23 ± 10.4 % of control
- Burst duration (% of control) CA1 ([2]; CBDV 1 μM): 99.3 ± 4.5 % of control
- Burst amplitude (% of control) CA3 ([2]; CBDV 1 μM): 112.7 ± 13.7 % of control
- Burst duration (% of control) CA3 ([2]; CBDV 1 μM): 101.7 ± 2.3 % of control
- Burst amplitude (% of control) DG ([2]; CBDV 1 μM): 89.8 ± 8.6 % of control
- Burst duration (% of control) DG ([2]; CBDV 1 μM): 90.6 ± 4.5 % of control
- Burst amplitude (% of control) CA1 ([2]; CBDV 10 μM): 79.9 ± 6.9 % of control
- Burst duration (% of control) CA1 ([2]; CBDV 10 μM): 91.2 ± 3.8 % of control
- Burst amplitude (% of control) CA3 ([2]; CBDV 10 μM): 104.8 ± 10.3 % of control
- Burst duration (% of control) CA3 ([2]; CBDV 10 μM): 93.9 ± 4.1 % of control
- Burst amplitude (% of control) DG ([2]; CBDV 10 μM): 86.4 ± 3.6 % of control
- Burst duration (% of control) DG ([2]; CBDV 10 μM): 92.0 ± 3.2 % of control
- Burst amplitude (% of control) CA1 ([2]; CBDV 100 μM): 80.4 ± 8.0 % of control
- Burst duration (% of control) CA1 ([2]; CBDV 100 μM): 74.0 ± 5.8 % of control
- Burst amplitude (% of control) CA3 ([2]; CBDV 100 μM): 102.9 ± 13.0 % of control
- Burst duration (% of control) CA3 ([2]; CBDV 100 μM): 78.5 ± 6.6 % of control
- Burst amplitude (% of control) DG ([2]; CBDV 100 μM): 79.5 ± 5.6 % of control
- Burst duration (% of control) DG ([2]; CBDV 100 μM): 75.6 ± 5.4 % of control
- Burst amplitude (% of control) CA1 ([3]; CBDV 1 μM): 89.3 ± 5.6 % of control
- Burst duration (% of control) CA1 ([3]; CBDV 1 μM): 104.3 ± 8.0 % of control
- Burst amplitude (% of control) CA3 ([3]; CBDV 1 μM): 103.0 ± 5.8 % of control
- Burst duration (% of control) CA3 ([3]; CBDV 1 μM): 91.0 ± 6.0 % of control
- Burst amplitude (% of control) DG ([3]; CBDV 1 μM): 94.2 ± 3.0 % of control
- Burst duration (% of control) DG ([3]; CBDV 1 μM): 95.7 ± 5.9 % of control
- Burst amplitude (% of control) CA1 ([3]; CBDV 10 μM): 88.3 ± 5.2 % of control
- Burst duration (% of control) CA1 ([3]; CBDV 10 μM): 85.9 ± 6.2 % of control
- Burst amplitude (% of control) CA3 ([3]; CBDV 10 μM): 121.9 ± 17.0 % of control
- Burst duration (% of control) CA3 ([3]; CBDV 10 μM): 82.5 ± 4.8 % of control
- Burst amplitude (% of control) DG ([3]; CBDV 10 μM): 91.2 ± 4.9 % of control
- Burst duration (% of control) DG ([3]; CBDV 10 μM): 83.8 ± 4.4 % of control
- Burst amplitude (% of control) CA1 ([3]; CBDV 100 μM): 89.5 ± 5.3 % of control
- Burst duration (% of control) CA1 ([3]; CBDV 100 μM): 85.9 ± 5.8 % of control
- Burst amplitude (% of control) CA3 ([3]; CBDV 100 μM): 110.3 ± 7.0 % of control
- Burst duration (% of control) CA3 ([3]; CBDV 100 μM): 79.7 ± 5.4 % of control
- Burst amplitude (% of control) DG ([3]; CBDV 100 μM): 95.9 ± 4.3 % of control
- Burst duration (% of control) DG ([3]; CBDV 100 μM): 83.4 ± 4.1 % of control
- time remaining on the rotarod (latency to fall) ([4]; 100 mg/kg CBDV): 86.6 s
- time remaining on the rotarod (latency to fall) ([4]; 200 mg/kg CBDV): 110.0 s
- effect on the latency to fall compared to vehicle ([4]; CBDV at any dose (100, 200 mg/kg), P=0.253): no effect
- severity of the epilepsy, CBDV compared with SAED ([5]; CBDV 200 mg/kg): lessen the severity of the epilepsy to a greater degree than the existing epileptic drug valproate
- mortality (independent effect when co-administered) [5, 7]: significant decreases
- onset latency (independent effect when co-administered) [5, 7]: significant decreases
- seizure severity (independent effect when co-administered) [5, 7]: significant decreases
